We go through 16 molecules from patent publication US12357582B2, “Hydrophobic ion pairing and flash nanoprecipitation for formation of controlled-release nanocarrier formulations” (The Trustees of Princeton University, priority 2017, dated 2025).

Common to all, as to assay type: physicochemical
The nature of series [1]: Ion-pairing screening using polymyxin B API. Further details: key to Reprecipitation: + details re-precipitation observed; − details no re-precipitation observed; key to Organic Dissolution: ++ details complete dissolution; + details non-complete dissolution; key to Precipitation: +++: + details qualitative observations of the amount of solid formed; ++: + details qualitative observations of the amount of solid formed; + details qualitative observations of the amount of solid formed; − details no solids formed. Particulars: for Precipitation: polymyxin B API mixed with IP in water; for Reprecipitation: polymyxin B:IP organic solution diluted ten-fold in water; for Organic Dissolution: polymyxin B:IP pellet in organic solvent (THF); for precipitation upon mixing and NC formation: FIG. 4, polymyxin. The method, then:
(§1) The fifteen ion pairing (IP) reagents listed above were screened to assess if hydrophobic API salt forms would be formed and would precipitate from solution. Ion pair and API drug properties were calculated with Molinspiration software (Molinspiration Cheminformatics, Slovakia). APIs were dissolved in water at 5 mg mL^−1 concentration and mixed with IPs dissolved in water at varying concentrations to yield different API to IP ratios. The screening process determines whether a particular IP may be used with a given API for NC formation.
(§2) In the case of pre-ion pairing, API and IP are mixed in water to form a water-insoluble precipitate (referred to as an API:IP complex). The water is then removed, and the API:IP complex is dissolved into an organic solvent (along with a block copolymer) for use in the organic stream in FNP. In this case, the API:IP complex is treated as a component in the organic stream of normal FNP. The screening process for the pre-ion paired method FNP involves four sequential tests. • 1. The first test examines the solubility of the IP agent. IP is added to DI water at a concentration that would be required for a 1:1 API:IP charge ratio if the API were dissolved at 5 mg mL^−1. (In this text the ratios are presented as charge ratios of API:IP.) Substantial […] in water is required for successful ion pairing. • 2. The second test examines whether an in situ API:IP complex can be formed in a single step. For example, The second test examines whether solids precipitate upon mixing of the aqueous IP solution with an aqueous API solution. Alternatively, IP in an organic, but water miscible, solution is mixed against the aqueous API solution. The final solution is checked visually to see if precipitation has occurred. In this test, the IP solution is at a concentration such that mixing equal volumes of IP solution and API solution will form a 1:1 API to IP charge ratio. Four API:IP ratios are investigated: 200 μL API solution is mixed with 100 μL IP solution for a 1:0.5 charge ratio; 200 μL API solution is mixed with 200 μL IP solution for a 1:1 charge ratio; 200 μL API solution is mixed with 400 μL IP solution for a 1:2 charge ratio; and 200 μL API solution is mixed with 800 μL IP solution for a 1:4 charge ratio. • 3. The third test examines whether the API:IP complex can be solubilized in the organic phase for subsequent FNP NC formation. Pellets of the precipitate formed in the second test are tested to see if they are soluble in a water-miscible organic solvent such as tetrahydrofuran (THF) or more polar solvents such as dimethyl sulfoxide (DMSO) or methanol (MeOH). For example, if precipitates were formed in the second test, the mixture can be centrifuged at 20800 rcf for 20 minutes, and the aqueous supernatant can be removed in order to recover pelleted precipitate. 200 μL of organic solvent can be added to the pellet; the solution can then be mixed to determine whether the pellet dissolves. • 4. The final (fourth) test assesses if the hydrophobic API:IP complex will re-precipitates when mixed with water, e.g., upon FNP mixing with water as the antisolvent. The organic solvent containing API:IP from the third test is diluted ten-fold in water, and precipitate formation is examined. If a precipitate forms, then the construct is suitable for use in FNP. In Situ Ion Pairing
(§3) Several water-soluble counter ion salts IPs were chosen for this investigation to determine the physical properties of the counter ions required for successful complex formation (FIG. 3). A range of carboxylate and sulfonate salt IPs whose acid forms have pKa ranging 5 to −1.9 were tested, as well as salts with a wide range of solubilities and LogP values as high as 7.6 or as low as −4.92. API was dissolved at 5 mg mL^−1 in water in 1× volume, and rapidly mixed with 1× volume of dissolved IP to give a final mixture containing a 1:1 API:IP charge ratio. Mixtures were visually observed to assess if precipitates rapidly formed.

Series [2] is described as follows: Ion-pairing screening using gentamicin API. The arrangement: key to Reprecipitation: + details reprecipitation observed; − details no reprecipitation observed; key to Organic Dissolution: ++ details complete dissolution; + details non-complete dissolution; key to Precipitation: +++: + details qualitative observations of the amount of solid formed; ++: + details qualitative observations of the amount of solid formed; + details qualitative observations of the amount of solid formed; − details no solids formed. Particulars: for Precipitation: gentamicin API mixed with IP in water; for Reprecipitation: gentamicin:IP organic solution diluted ten-fold in water; for Organic Dissolution: gentamicin:IP pellet in organic solvent (THF). The procedure: as §1, §2
as §3, with “formed. […]” for “formed.”

Series [3] in a line: API release from NCs by dialysis (BCA assay). Particulars: MP7; NPs are MP7:SDS 1:1 PCL5k-b-PEG5k. The procedure:
Drug concentrations were determined with the bicinchoninic acid (BCA) assay (Spectramax i3x, Molecular Devices) with absorbance measurements at 562 nm, using a standard curve of the same drug (unencapsulated) as the reference. API fractional release was determined by dialyzing NC sample in 100-fold 1×PBS. […] The drug concentration in each aliquot was determined by the BCA assay at 562 nm. The released fraction is the API concentration at each time point divided by the initial API concentration before dialysis (Eq. 2).
API release rates from NCs are a critical determinant of dosing frequency, in vivo active concentrations, and overall therapeutic effectiveness. The release rates of polymyxin B were assessed by enclosing NCs in an 8 kDa MWCO dialysis bag and diluting into a thousand-fold excess volume of PBS to simulate an “open sink” condition at room temperature. Encapsulated polymyxin within dialysis bags was measured over time, using the BCA assay, to determine the amount of API that had been released (FIGS. 7A, 7B, and 7C).

Series [4] can be described thus: Particle size and polydispersity by dynamic light scattering. As to conditions: OVA with at least one charge equivalent of quaternary ammonium surfactant, PCL5k-b-PEG5k NPs.

`CC1(C)C2CC[C@]1(CS(=O)(=O)O)C(=O)C2` [(1R)-(-)-10-Camphorsulfonic Acid, (1R)-(−)-10-camphorsulfonic acid]: the Precipitation result in series [1] and in series [2] was “−” each time.

In the case of `O=S(=O)(O)c1ccccc1` [Benzenesulfonic Acid Monohydrate, benzenesulfonic acid monohydrate], the Precipitation result in series [1] and in series [2] was “−” in each case.

Take `O=S(=O)([O-])CCS(=O)(=O)[O-].[Na+].[Na+]` [Sodium 1,2-Ethanedisulfonate, sodium 1,2-ethanesulfonate]: the Precipitation result in series [1] and in series [2] was “−” throughout.

Turning to `CCCCCCCCCCS(=O)(=O)[O-].[Na+]` [Sodium 1-Decanesulfonate, sodium 1-decanesulfonate], in series [1], the Precipitation result is listed as “+++”, the Reprecipitation result is given as “+” and the “Organic Dissolution” value was “++”. In series [2], the Precipitation entry is listed as “+++”, the Reprecipitation result is “+” and the “Organic Dissolution” value was “++”.

For `CCCCCCCS(=O)(=O)[O-].[Na+]` [Sodium 1-Heptanesulfonate, sodium 1-heptanesulfonate], in series [1], the Precipitation result is reported as “+”, the Reprecipitation result was “−” and the “Organic Dissolution” value is listed as “+”. Further, the Precipitation entry in series [2] is listed as “−”.

With `CCCCCCCCS(=O)(=O)[O-].O.[Na+]` [Sodium 1-Octanesulfonate Monohydrate, sodium 1-octanesulfonate monohydrate], in series [1], the Precipitation entry was “+++”, the Reprecipitation result is recorded as “−” and the “Organic Dissolution” value is “++”. Further, in series [2], the Precipitation result is “++”, the Reprecipitation result is reported as “−” and the “Organic Dissolution” value is listed as “++”.

As to `O=S(=O)([O-])c1ccc2ccccc2c1.[Na+]` [Sodium 2-Naphthalenesulfonate, sodium 2-naphthalenesulfonate], in series [1], the Precipitation entry is “++”, the Reprecipitation result is on record as “−” and the “Organic Dissolution” value is given as “++”. In series [2], the Precipitation result is on record as “++”, the Reprecipitation entry is listed as “−” and the “Organic Dissolution” value was “++”.

`CCCCCCCCCC(=O)[O-].[Na+]` [Sodium Decanoate, sodium decanoate]: in series [1], the Precipitation result is “++” and the Reprecipitation entry is “−”. Further, the Precipitation result in series [2] is listed as “+”.

As to `CCCCCCCCCCCCOS(=O)(=O)[O-].[Na+]` [Sodium Dodecyl Sulfate, sodium dodecyl sulfate], in series [1], the “precipitation upon mixing and NC formation” value was “rapid precipitation and successful NC formation”; the Precipitation result is reported as “+++”; the Reprecipitation entry is recorded as “+”; the “Organic Dissolution” value is reported as “++”. Besides, in series [2], the Precipitation entry was “+++”, the Reprecipitation result is reported as “+” and the “Organic Dissolution” value is listed as “++”.

On to `CCCCCCCCCCCCc1ccc(S(=O)(=O)[O-])cc1.[Na+]` [Sodium Dodecylbenzenesulfonate, sodium dodecylbenezenesulfonate], for which, in series [1], the “precipitation upon mixing and NC formation” value was “rapid precipitation and successful NC formation”; the Precipitation entry is listed as “+++”; the Reprecipitation entry is “+”; the “Organic Dissolution” value was “++”. Moreover, in series [2], the Precipitation result is listed as “+++”, the Reprecipitation result was “+” and the “Organic Dissolution” value is reported as “++”.

Regarding `CCCCCC(=O)[O-].[Na+]` [Sodium Hexanoate, Sodium hexanoate], the Precipitation entry in series [1] and in series [2] was “−” throughout.

Turning to `CCCCCCCCCCCCCC(=O)[O-].[Na+]` [Sodium Myristate, sodium myristate], the Precipitation result in series [1] is reported as “++”; in series [2], “−”.

For the molecule `CCCCCCCC/C=C\CCCCCCCC(=O)[O-].[Na+]` [Sodium Oleate, sodium oleate], in series [1], the “precipitation upon mixing and NC formation” value was “rapid precipitation and successful NC formation”; the Precipitation result is given as “+++”; the Reprecipitation result is “+”; the “Organic Dissolution” value was “++”. The Precipitation result in series [2] is on record as “−”.

Turning to Mastoparan 7 [MP7, reference compound], the “characteristic release time (time for 50% release)” value in series [3] turned out to be 2.9 h.

Regarding sodium deoxycholate, the Precipitation result in series [1] is recorded as “+++”; in series [2], “++”.

B1: Ovalbumin (protein, UniProt P01012 2-386, looked up)
Ovalbumin: GSIGAASMEFCFDVFKELKVHHANENIFYCPIAIMSALAMVYLGAKDSTRTQINKVVRFDKLPGFGDSIEAQCGTSVNVHSSLRDILNQITKPNDVYSFSLASRLYAEERYPILPEYLQCVKELYRGGLEPINFQTAADQARELINSWVESQTNGIIRNVLQPSSVDSQTAMVLVNAIVFKGLWEKAFKDEDTQAMPFRVTEQESKPVQMMYQIGLFRVASMASEKMKILELPFASGTMSMLVLLPDEVSGLEQLESIINFEKLTEWTSSNVMEERKIKVYLPRMKMEEKYNLTSVLMAMGITDVFSSSANLSGISSAESLKISQAVHAAHAEINEAGREVVGSAEAGVDAASVSEEFRADHPFLFCIKHIATNAVLFFGRCVSP
notes: anionic protein, 385 amino acid residues, 43,000 Da
With B1, in series [4], the NP diameter is recorded as approximately 150 nm and the PDI is less than 0.2.
